Here are results for 68 compounds from PubChem BioAssay AID504903 (Southern Research Specialized Biocontainment Screening …, 2011).

Assay [1] can be described thus: M. tuberculosis growth inhibition, dose response, H37Rv, 7H9 media, purified and synthesized compounds, set 5 (AID 504903). The following applies: M. tuberculosis H37Rv growth in 7H9 medium; at 100 µM (top of the series).
The test system of assay [2] is M. tuberculosis H37Rv growth in 7H9 medium. The assay is described as above. The following applies: for IC50: measured here: M. tuberculosis growth IC50.

Calls of active or inactive are those of the source. No rule for the calls is given here.

In the case of `CCOC(=O)CSc1nc(C)c(C)c(=O)[nH]1`, in assay [1], the growth inhibition is -4.51% (inactive). One may read the IC50 as the concentration that gives 50% inhibition. Low readings indicate greater potency, high ones weaker potency. In assay [2], `Cc1[nH]c2ccccc2c1C(=O)COC(=O)c1ccc([N+](=O)[O-])s1` showed an IC50 greater than 50300 nM. On the same count and under the same terms, the value for `O=C(CSc1ccccn1)NC1CCCCC1` was greater than 95800 nM. In general, IC90 refers to the concentration at which the effect reaches the 90% level. In the case of `CO[C@H]1/C=C/O[C@@]2(C)Oc3c(C)c(O)c4c(O)c(c(C=NN5CCN(C)CC5)c(O)c4c3C2=O)NC(=O)/C(C)=C\C=C\[C@H](C)[C@H](O)[C@@H](C)[C@@H](O)[C@@H](C)[C@H](OC(C)=O)[C@@H]1C`, in assay [2], the IC90 is 10 nM and the IC50 was less than 10 nM. Consider `O=C(CSc1ncccn1)NC1CCCCC1`, for which, in assay [1], the growth inhibition is -3.3% (inactive). Same read-out and setting: the value for `NC(=O)c1cnccn1` was 0.23% (inactive). As to `O=C(CSc1nc2ccccc2c(=O)[nH]1)NC1CCCCC1`, in assay [2], the IC90 is 310 nM and the IC50 worked out at 160 nM.

Take `Cc1cc(=O)[nH]c(=S)[nH]1`: in assay [1], the growth inhibition was -8.51% (inactive). As for `c1ccc(/N=C2\N=C(Nc3ccccn3)c3ccccc32)nc1`, in assay [2], the IC90 was 1330 nM and the IC50 worked out at 750 nM. In the case of `CN(C)C(=O)CSc1nc2ccccc2c(=O)[nH]1`, in assay [1], the growth inhibition is -2.5% (inactive). On the same count and under the same terms, the result for `CC(Sc1nc2ccccc2c(=O)[nH]1)C(=O)NC1CCCCC1` (stereo not drawn) reads -8.54% (inactive). As for `CC[N+](C)(CC)CCCCOc1ccc2c(c1)C(=O)c1cc(OCCCC[N+](C)(CC)CC)ccc1-2`, in assay [2], the IC90 was 2450 nM and the IC50 amounted to 1500 nM. On to `COc1cccc(NC(=O)CSc2nc3c(c(=O)[nH]2)CCC3)c1`, for which the growth inhibition in assay [1] was -9.73% (inactive). On to `CC1CCN(C(=O)C2CCN(c3nnc(-n4cccc4)s3)CC2)CC1`, for which, in assay [2], the IC90 is 4660 nM and the IC50 was found to be 2550 nM. As to `O=C(CSc1nc2c(c(=O)[nH]1)CCCC2)NC1CCCCC1`, in assay [2], the IC90 was less than 70 nM and the IC50 is less than 30 nM.

As for `CC(C)CCNC(=O)CSc1nc2c(c(=O)[nH]1)CCC2`, in assay [2], the IC90 was 1030 nM and the IC50 turned out to be 600 nM. Consider `Cn1c(SCC(=O)NC2CCCCC2)nc2ccccc2c1=O`, for which the growth inhibition in assay [1] was -10.1% (inactive).

In assay [2], `CNC(=O)CSc1nc2ccccc2c(=O)[nH]1` returned an IC50 of 56200 nM. As for `NC(=O)CSc1nc2ccccc2c(=O)[nH]1`, the growth inhibition in assay [1] is 3.23% (inactive). As to `Cc1cccc(-c2oc3ccc(-c4ccc5c(c4)OCO5)cc3c2C#Cc2cncn2C)c1`, in assay [2], the IC90 is 3030 nM and the IC50 came to 2520 nM. For the compound `O=c1[nH]c(SCc2ccccc2Cl)nc2c1CCCC2`, in assay [1], the growth inhibition was -4.24% (inactive).

For `O=C(CSc1nc2ccccc2c(=O)[nH]1)NCc1ccc(Cl)cc1`, in assay [2], the IC90 was 980 nM and the IC50 was 440 nM.

On to `NC[C@H]1O[C@H](O[C@H]2[C@H](O)[C@@H](O[C@H]3O[C@H](CO)[C@@H](O)[C@H](N)[C@H]3O)[C@H](N)C[C@@H]2N)[C@H](O)[C@@H](O)[C@@H]1O`, for which, in assay [2], the IC90 is 2360 nM and the IC50 is 1140 nM. In the same order, the values of `CC(C)CCNC(=O)CSc1nc2ccccc2c(=O)[nH]1` are 120 nM and less than 60 nM. In the same order, the values of `CCOc1ccc(-c2cc(C)[n+](CCc3ccc(OC)c(OC)c3)c(-c3ccc(OCC)cc3)c2)cc1` are 860 nM and 480 nM. In the same order, the values of `COC(=O)C(C)Oc1ccc(Cc2ncc(C(F)(F)F)cc2Cl)cc1` (stereo not drawn) are 7660 nM and 3110 nM. Take `Cc1cc(=O)[nH]c(SCC(=O)NC2CCCCC2)n1`: the growth inhibition in assay [1] was 8.24% (inactive).

Take `Cc1nc(SCC(=O)NC2CCCC2)[nH]c(=O)c1C`: in assay [2], the IC90 is 10500 nM and the IC50 was 4490 nM. In the case of `O=c1[nH]c(=S)[nH]c2ccccc12`, the growth inhibition in assay [1] is -4.57% (inactive). Same read-out and setting: the result for `Cc1ccc(NC(=O)CSc2nc3ccccc3c(=O)[nH]2)cc1Cl` reads -6.21% (inactive).

Regarding `CN1CCC(NC(=O)CSc2nc3ccccc3c(=O)[nH]2)CC1`, the growth inhibition in assay [1] is -7.75% (inactive). The same measure, in the same setting: the value for `COC(=O)c1ccc(CNc2c(N3CCCC3)c(=O)c2=O)cc1` was 23.6% (inactive). `Cc1ccc(C(=O)N/N=C(/CC(=O)c2cccs2)C(F)(F)F)cc1`: in assay [2], the IC90 was 2940 nM and the IC50 came out at 1250 nM. The like results for `O=C(CSc1nc2c(c(=O)[nH]1)CCC2)NC1CCCCC1` were, in that order, less than 70 nM and less than 40 nM. For the compound `Cc1nc(SCC(=O)N(C)c2ccccc2)[nH]c(=O)c1C`, in assay [1], the growth inhibition was -9.88% (inactive). As to `Cc1nc(SCc2ccccc2Cl)[nH]c(=O)c1C`, in assay [1], the growth inhibition was -6.23% (inactive). Still for that read-out and setting: the result for `CCC(Sc1nc2ccccc2c(=O)[nH]1)C(=O)Nc1cccc(OC)c1` (stereo not drawn) reads -2.52% (inactive); that for `Cc1c[nH]c(=S)[nH]c1=O`, -1.72% (inactive). `O=C(CSc1nc2ccccc2c(=O)[nH]1)N1CCOCC1`: in assay [1], the growth inhibition is -3.23% (inactive).

With `CCCc1cc(C(N)=S)ccn1`, the IC50 in assay [2] came to 6010 nM. Turning to `Cc1[nH]c(=S)[nH]c(=O)c1C`, the growth inhibition in assay [1] is -6.68% (inactive).

For `Cc1cccc(/C=C/C(=O)c2ccc([N+](=O)[O-])o2)c1`, in assay [2], the IC90 was 800 nM and the IC50 is 310 nM. `COc1ccc(NC(=O)CSc2nc3ccccc3c(=O)[nH]2)cc1`: in assay [1], the growth inhibition is 4.59% (inactive). Still for that read-out and setting: the result for `COC(=O)C(Nc1nc(SCC(=O)NC2CCCCC2)nc2ccccc12)c1ccccc1` (stereo not drawn) reads 0.4% (inactive). In the case of `NNC(=O)c1ccncc1`, in assay [2], the IC90 was 320 nM and the IC50 was 190 nM.

Take `Nc1cc(=O)[nH]c(SCC(=O)NC2CCCCC2)n1`: the growth inhibition in assay [1] was -2.55% (inactive). As to `CC(C)N=c1cc2n(-c3ccc(Cl)cc3)c3ccccc3nc-2cc1Nc1ccc(Cl)cc1`, in assay [2], the IC90 is 310 nM and the IC50 worked out at 10 nM. Turning to `CC1CCN(C(=O)CSc2nc3ccccc3c(=O)[nH]2)CC1`, the growth inhibition in assay [1] is -3.58% (inactive). Still for that read-out and setting: the result for `CN(C(=O)CSc1nc2ccccc2c(=O)[nH]1)C1CCCCC1` reads -0.89% (inactive); that for `CCSc1nc(C)c(C)c(=O)[nH]1`, -1.81% (inactive); that for `O=C(CSc1nccc(=O)[nH]1)NC1CCCCC1`, -5.41% (inactive). `COc1c(N2CCNC(C)C2)c(F)cc2c(=O)c(C(=O)O)cn(C3CC3)c12` (stereo not drawn): in assay [2], the IC90 is 120 nM and the IC50 worked out at 90 nM.

Regarding `Cc1nc(SCC(=O)NCCC(C)C)[nH]c(=O)c1C`, in assay [2], the IC90 is 9790 nM and the IC50 turned out to be 4870 nM. `Cc1ccc(NC(=O)COC(=O)CCc2c[nH]c3ccccc23)cc1[N+](=O)[O-]`: in assay [2], the IC90 was 3590 nM and the IC50 turned out to be 860 nM. The like results for `Cc1cc(Br)ccc1NC(=O)c1cnc(N2CCN(c3ccccn3)CC2)c2ccccc12` were, in that order, 6160 nM and 680 nM.

As for `Nc1c(C(=O)NC2CCCCC2)nsc1C(=O)OCC(=O)NC1CCCCC1`, in assay [2], the IC90 was 42400 nM and the IC50 came out at 1970 nM. The like results for `Cc1nc(SCC(=O)NC2CCCCC2)[nH]c(=O)c1C` were, in that order, 230 nM and less than 10 nM. `CCC(Sc1nc2ccccc2c(=O)[nH]1)C(=O)NC1CCCCC1` (stereo not drawn): the growth inhibition in assay [1] is -1.65% (inactive). Same read-out and setting: the result for `Cc1nc(SCC(N)=O)[nH]c(=O)c1C` reads 1.58% (inactive); that for `COc1cccc(NC(=O)CSc2nc3ccccc3c(=O)[nH]2)c1`, -1.31% (inactive); that for `CCSc1nc2ccccc2c(=O)[nH]1`, -4.06% (inactive). Same read-out and setting: the value for `Cc1cnc(SCC(=O)NC2CCCCC2)[nH]c1=O` was -2.75% (inactive); that for `CCC(Sc1nc2c(c(=O)[nH]1)CCC2)C(=O)Nc1cccc(OC)c1` (stereo not drawn) was 0.63% (inactive).

As for `Cc1cc(C)n2nc(N)c(N=Nc3ccccc3)c2n1`, in assay [2], the IC90 was 5540 nM and the IC50 was 3880 nM. In the same order, the values of `CCOC1OC(=O)C(Cl)=C1Nc1ccccc1C` (stereo not drawn) are 5450 nM and 2900 nM. In the same order, the values of `CC(C)NC(=O)CSc1nc2ccccc2c(=O)[nH]1` are 18800 nM and 4770 nM.

Consider `CN[C@@H]1[C@H](O[C@H]2[C@H](O[C@H]3[C@H](O)[C@@H](O)[C@H](N=C(N)N)[C@@H](O)[C@@H]3N=C(N)N)O[C@@H](C)[C@]2(O)C=O)O[C@@H](CO)[C@H](O)[C@H]1O`, for which, in assay [2], the IC90 was 140 nM and the IC50 worked out at 70 nM. The like results for `O=C(CSc1nc2ccccc2c(=O)[nH]1)NC1CCCC1` were, in that order, 550 nM and 30 nM.
